Results on three compounds are retold here after publication PMC7913148, “Anti-Cholinesterase Combination Drug Therapy as a Potential Treatment for Alzheimer’s Disease” (Brain Sciences, 2021).

pIC50: −log10 of the molar value. Structures can show the parent of a compound that is named as a salt. Where only a bound is given, the exact number is not on record here.

Data set [1] has as its target T1, Torpedo californica acetylcholinesterase (tcAChE) (Tetronarce californica, UniProt P04058).
T1 construct: purchased Sigma-Aldrich (Poole, UK)
Nature of the data set: biochemical. Conditions: individual drug; Torpedo californica AChE (tc); read-out: Acetycholinesterase Inhibition (IC50).
Procedure: A microtiter plate version of the Ellman’s assay was used to determine the activity of human and Torpedo californica acetylcholinesterase enzymes [27]. Assays were undertaken in the presence of either individual drugs or two-drug combinations. Each assay data point within a 96-well plate contained 40 µL of 0.01 M DTNB, 46 µL of 0.1 M (pH 8.0) phosphate buffer, 2 µL of 0.075 M ATCI substrate, and 10 µL of drug or dual-drug combination. […] Enzymatic cleavage of the ATCI substrate was initiated by addition of 2 µL of 0.5 U/mL AChE enzyme. […] Under these assay conditions, a final color change was reached (results not included) such that an end-point assay measurement was taken [29].
These scoping experiments enabled us to quantify an approximate IC50 for subsequent dose-response experiments. […] These concentrations were also used for dual-drug combination experiments. Experiments undertaken in the absence of inhibitor were designated as 100% enzymatic activity. Assays were performed in duplicates from which a mean was calculated.
Percentage inhibition of AChE from in vitro assays in response to application of individual or dual-drug ChEIs were calculated using CompuSyn software (http://www.combosyn.com/index.html). […]

The next data set in a line: MTT cytotoxicity assay. It is filed as cell-based, human. Conditions: human, SH-SY5Y neuroblastoma cells; read-out: Cell Cytotoxicity Log IC50 (converted). The protocol: (§1) A MTT assay was used to assess the cytotoxicity of either the individual drugs or dual-drug combinations using the SH-SY5Y neuroblastoma cell line. SH-SY5Y cells were seeded in 96-well plates (passage #15) at a cell density of 3 × 10^4 cells/well in DMEM containing 10% FBS. […] Plates were incubated for 4 h at 37 °C, before removal of the media and replacement with 1:1 (v/v) isopropanol:DMSO. […] Cell viability of cells treated with drugs was quantified by comparison to untreated control cells, set at 100% viability.
(§2) Values generated for IC50 and for the dual-drug CI were determined using CompuSyn software. […] For cell viability assays, a one-way ANOVA was performed to determine significant changes after treatments compared to control cell viability, set at 100%.

Data set [2] deals with SH-SY5Y neuroblastoma cells. Nature of the data set: MTT cytotoxicity assay. The class given is cell-based, human. Conditions: SH-SY5Y, MTT, 48 h; significant change from control. The method, then:
as §1, §2
On the technique in general: Tetrazolium dyes change colour on reduction, which living cells bring about.

For data set [3] the following is noted: compared to tacrine or berberine; cited from earlier work.

One may read the pIC50 as the IC50 on a negative log10 scale, so that one unit is a factor of ten. One may read the IC50 as the concentration that gives 50% inhibition.

T1 sequence (P04058 22-586): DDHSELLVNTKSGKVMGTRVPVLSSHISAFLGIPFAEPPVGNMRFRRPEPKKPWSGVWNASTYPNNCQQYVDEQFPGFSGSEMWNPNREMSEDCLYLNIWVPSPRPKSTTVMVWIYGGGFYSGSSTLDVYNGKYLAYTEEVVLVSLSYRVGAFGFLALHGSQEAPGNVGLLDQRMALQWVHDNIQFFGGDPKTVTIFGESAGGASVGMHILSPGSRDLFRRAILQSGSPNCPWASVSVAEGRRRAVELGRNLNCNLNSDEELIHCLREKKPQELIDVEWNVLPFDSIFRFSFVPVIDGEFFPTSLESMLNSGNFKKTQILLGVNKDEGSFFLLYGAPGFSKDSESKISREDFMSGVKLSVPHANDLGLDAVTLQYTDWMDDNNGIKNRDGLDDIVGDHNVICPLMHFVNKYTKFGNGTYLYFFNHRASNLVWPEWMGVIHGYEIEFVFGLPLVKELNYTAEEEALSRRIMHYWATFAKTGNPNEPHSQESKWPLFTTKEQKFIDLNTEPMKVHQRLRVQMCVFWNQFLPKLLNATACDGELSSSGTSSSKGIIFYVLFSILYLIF

Turning to `COc1ccc2cc3[n+](cc2c1OC)CCc1cc2c(cc1-3)OCO2` [Ber, berberine hydrochloride], the negative logarithm of the IC50 (pIC50) in data set [1] is 5.49. Further, in the data set “MTT cytotoxicity assay”, the IC50 at 48 h was 955 µg/mL. Besides, the “concentration needed to reduce cell viability (induce toxicity)” value in data set [2] is on record as at least 1 µM.
For `Nc1c2c(nc3ccccc13)CCCC2` [Tac, tacrine hydrochloride], in the data set “MTT cytotoxicity assay”, the 50% inhibitory concentration (IC50) at 48 h was 339 µg/mL. Further, the “concentration needed to reduce cell viability (induce toxicity)” value in data set [2] was “at least 10 µM”.
As for `COc1ccc2c3c1O[C@H]1C[C@@H](O)C=C[C@@]31CCN(C)C2` [Gal, galantamine hydrobromide], in data set [3], the oral bioavailability result is “relatively high”. In addition, in “MTT cytotoxicity assay”, the half-inhibitory concentration (IC50) at 48 h was 12600 µg/mL. The “concentration needed to reduce cell viability (induce toxicity)” value in data set [2] is at least 100 µM.
